Read-outs that look alike come from different tables or passages of the source.

These results are taken from US20100260684A1, “USE OF 3-ALKANOYLOXYMETHOXYCARBONYL NITROXIDE ESTERS AS OXIMETRY PROBES FOR MEASUREMENT OF OXYGEN STATUS IN TISSUES” (priority 2007, published 2010).

One series deals with Jurkat lymphocytes. The series is classed as cell-based. As for the experimental part: Cellular Loading of Nitroxides. Jurkat lymphocytes were cultured and loaded with nitroxides as previously described (5,6). […] After incubation, cells were washed 3 times in Hanks' Balanced Salt Solution (HBSS), and resuspended in […] HBSS. To lyse cells, […] digitonin was added to each cell suspension, which was then sonicated for […] in a bath sonicator (model G1 12SPIG, Laboratory Supplies Company, Inc., Hicksville, N.Y.). The lysate was assayed for nitroxide content by EPR spectroscopy. […] EPR Spectroscopy. EPR spectra were recorded on an X-band spectrometer (model E-109, Varian Inc., Palo Alto, Calif.) at the following settings: microwave power, 20 mW; microwave frequency, 9.55 GHz; field set, 3335 G; modulation frequency, 1 kHz; modulation amplitude, 0.5 G; field sweep, 80 G at 26.7 G min^-1 Where the amplitude of only the center spectral line was required, the sweep width was 8 […] software (Scientific Software Solutions, Northville, Mich.) was used for spectrometer control and data acquisition. Nitroxide signal was measured as the peak-to-trough amplitude of the center line of the three-line spectrum.

Series [1] is described as follows: Determination of logP of labile esters from HPLC capacity factors. Particulars: pH 6.
The conditions of series [2]: pH 6.
For series [3] the following is noted: mouse, in vivo, iv.
For series [4] the following is noted: literature values used for logP vs. logk' calibration line; cited from earlier work.
Series [5] in a line: In vivo EPR: nitroxide entrapped in brain after iv injection and saline wash of head vasculature. Particulars: mice, vasculature washed with normal saline.

“3-heptanoylmethoxycarbonyl-2,2,5,5-tetramethyl-1-pyrrolidinyloxyl [Ester 7]”: the “intracellular loading of nitroxide [1]” value in the series on Jurkat lymphocytes is on record as “no additional improvement in loading”.
`CCCCC(=O)OCOC(=O)C1CC(C)(C)N(O)C1(C)C` (centres unmarked) [Ester 4]: in series [1], the chromatographic logP (commonly lipophilicity estimated from chromatographic retention) was 2.67.
Turning to `CCCCC(=O)OCOC(=O)C1CC(C)(C)N([O])C1(C)C` (centres unmarked) [Ester 4, 3-pentanoylmethoxycarbonyl-2,2,5,5-tetramethyl-1-pyrrolidinyloxyl], the logP (as a rule, a log measure of how a compound divides between an organic and an aqueous phase) in series [2] was determined as 2.67. In addition, in series [3], the “percentage of original dose crossed the blood brain barrier and entrapped in the brain as nitroxide [1]” value was “about 65%”.
For the molecule `CCC(=O)OCOC(=O)C1CC(C)(C)N(O)C1(C)C` (centres unmarked) [Ester 3], the chromatographic logP in series [1] is 1.33.
With `C[C@]12CCC(=O)C=C1CC[C@@H]1[C@@H]2[C@@H](O)C[C@@]2(C)[C@H]1CC[C@]2(O)C(=O)CO` [hydrocortisone], the “known logP” value in series [4] is 1.53.
In the case of `CCCCCCC(=O)OCOC(=O)C1CC(C)(C)N(O)C1(C)C` (centres unmarked) [Ester 7], the chromatographic logP in series [1] was 3.54.
Turning to `CCC(=O)OCOC(=O)C1CC(C)(C)N([O])C1(C)C` (centres unmarked) [Ester 3, 3-propanoylmethyloxycarbonyl-2,2,5,5-tetramethyl-1-pyrrolidinyloxyl], in the series on Jurkat lymphocytes, the “intracellular loading of nitroxide [1]” value is on record as “negligible effect on intracellular loading”.
For the molecule `CC(=O)OCOC(=O)C1CC(C)(C)N([O])C1(C)C` (centres unmarked) [Ester 2, 3-Acetoxymethoxycarbonyl-2,2,5,5-tetramethyl-1-pyrrolidinyloxyl], the “percentage of original dose crossed the blood brain barrier and entrapped in the brain as nitroxide [1]” value in series [5] (10-min point) and in series [5] (20-min point) was “about 42%” throughout.
Consider `CC(C)(C)C(=O)OCOC(=O)C1CC(C)(C)N([O])C1(C)C` (centres unmarked) [Ester 6], for which the logP in series [2] is given as 2.60.
